Data reported in ChEMBL document CHEMBL1201862, “PubChem BioAssay data set” (2004).
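Following 48 hours of exposure in 96-well plates, responses at five concentrations were used to interpolate endpoints linearly. Abbreviation: GI50, concentration required for 50% inhibition of growth.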 Activity calls are given as the source filed them. Rule as the data show it: active = GI50 up to about 1.1 µM and inactive = higher.

Key:
Test in all cases: inhibition of tumour cell growth, NCI panel, 48 h
786-0 = tested on: 786-0
A549 = tested on: A549
ACHN = tested on: ACHN
BT-549 = tested on: BT-549
CAKI-1 = tested on: CAKI-1
CCRF-CEM = tested on: CCRF-CEM
COLO 205 = tested on: COLO 205
DU-145 = tested on: DU-145
EKVX = tested on: EKVX
HCC 2998 = tested on: HCC 2998
HCT-116 = tested on: HCT-116
HCT-15 = tested on: HCT-15
HL-60 = tested on: HL-60
HOP-62 = tested on: HOP-62
HT-29 = tested on: HT-29
Hs-578T = tested on: Hs-578T
IGROV-1 = tested on: IGROV-1
K562 = tested on: K562
KM12 = tested on: KM12
LOX IMVI = tested on: LOX IMVI
M14 = tested on: M14
MCF7 = tested on: MCF7
MDA-MB-231 = tested on: MDA-MB-231
MDA-MB-435 = tested on: MDA-MB-435
MDA-N = tested on: MDA-N
MOLT-4 = tested on: MOLT-4
Malme-3M = tested on: Malme-3M
NCI-H226 = tested on: NCI-H226
NCI-H23 = tested on: NCI-H23
NCI-H460 = tested on: NCI-H460
NCI-H522 = tested on: NCI-H522
NCI/ADR-RES = tested on: NCI/ADR-RES
OVCAR-3 = tested on: OVCAR-3
OVCAR-4 = tested on: OVCAR-4
OVCAR-5 = tested on: OVCAR-5
OVCAR-8 = tested on: OVCAR-8
PC-3 = tested on: PC-3
RXF 393 = tested on: RXF 393
SF-268 = tested on: SF-268
SF-295 = tested on: SF-295
SF-539 = tested on: SF-539
SK-MEL-28 = tested on: SK-MEL-28
SK-MEL-2 = tested on: SK-MEL-2
SK-MEL-5 = tested on: SK-MEL-5
SK-OV-3 = tested on: SK-OV-3
SN12C = tested on: SN12C
SNB-19 = tested on: SNB-19
SNB-75 = tested on: SNB-75
SR = tested on: SR
SW-620 = tested on: SW-620
T47D = tested on: T47D
TK-10 = tested on: TK-10
U-251 = tested on: U-251
UACC-257 = tested on: UACC-257
UACC-62 = tested on: UACC-62
UO-31 = tested on: UO-31
A498 = tested on: A498
HOP-92 = tested on: HOP-92
RPMI-8226 = tested on: RPMI-8226

Measured: GI50

CC(C)(C)OC(=O)N/C(C=O)=C\C1CCCCC1
18.8 µM: HCT-15
inactive: 786-0 19.9 µM | A549 > 100 µM | ACHN 29.3 µM | BT-549 25.2 µM | CAKI-1 20.4 µM | CCRF-CEM 29.6 µM | COLO 205 19.2 µM | DU-145 29 µM | EKVX 17.2 µM | HCC 2998 19.8 µM | HCT-116 16.3 µM | HL-60 25.4 µM | HOP-62 21 µM | HT-29 27.2 µM | Hs-578T 27.3 µM | IGROV-1 20.7 µM | K562 22.6 µM | KM12 24.4 µM | LOX IMVI 14.3 µM | M14 16.2 µM | MCF7 25.6 µM | MDA-MB-231 19.5 µM | MDA-MB-435 20 µM | MDA-N 18.5 µM | MOLT-4 14.8 µM | Malme-3M 25.8 µM | NCI-H226 21.2 µM | NCI-H23 23.7 µM | NCI-H460 20.2 µM | NCI-H522 45.7 µM | NCI/ADR-RES 18.3 µM | OVCAR-3 24.1 µM | OVCAR-4 23.1 µM | OVCAR-5 19.8 µM | OVCAR-8 16.3 µM | PC-3 17.3 µM | RXF 393 23.4 µM | SF-268 17.4 µM | SF-295 29.8 µM | SF-539 28.4 µM | SK-MEL-28 46.6 µM | SK-MEL-2 24.8 µM | SK-MEL-5 15.3 µM | SK-OV-3 30 µM | SN12C 19.3 µM | SNB-19 25.1 µM | SNB-75 29.7 µM | SR 17.3 µM | SW-620 27.3 µM | T47D 24.6 µM | TK-10 17.7 µM | U-251 17.2 µM | UACC-257 20.4 µM | UACC-62 15.6 µM | UO-31 16.5 µM

O=C(O)CCC(NC(=O)/C(=C/c1ccccc1)NC(=O)c1ccccc1)C(=O)O (stereo not drawn)
> 100 µM: HCT-15
inactive: 786-0 > 100 µM | A498 > 100 µM | A549 > 100 µM | ACHN > 100 µM | BT-549 > 100 µM | CAKI-1 > 100 µM | CCRF-CEM > 100 µM | COLO 205 > 100 µM | DU-145 > 100 µM | EKVX > 100 µM | HCC 2998 > 100 µM | HCT-116 > 100 µM | HL-60 > 100 µM | HOP-62 > 100 µM | HOP-92 > 100 µM | HT-29 > 100 µM | Hs-578T > 100 µM | IGROV-1 > 100 µM | K562 > 100 µM | KM12 > 100 µM | LOX IMVI > 100 µM | M14 > 100 µM | MCF7 > 100 µM | MDA-MB-231 > 100 µM | MDA-MB-435 > 100 µM | MDA-N > 100 µM | MOLT-4 > 100 µM | Malme-3M > 100 µM | NCI-H226 > 100 µM | NCI-H23 > 100 µM | NCI-H460 > 100 µM | NCI-H522 > 100 µM | NCI/ADR-RES > 100 µM | OVCAR-3 > 100 µM | OVCAR-4 > 100 µM | OVCAR-5 > 100 µM | OVCAR-8 > 100 µM | PC-3 > 100 µM | RPMI-8226 > 100 µM | RXF 393 > 100 µM | SF-268 > 100 µM | SF-295 > 100 µM | SF-539 > 100 µM | SK-MEL-28 > 100 µM | SK-MEL-2 > 100 µM | SK-MEL-5 > 100 µM | SK-OV-3 > 100 µM | SN12C > 100 µM | SNB-19 > 100 µM | SNB-75 > 100 µM | SW-620 > 100 µM | T47D > 100 µM | TK-10 > 100 µM | UACC-257 > 100 µM | UACC-62 > 100 µM | UO-31 > 100 µM
